# In patent US20100093763A1, “PHENYL SUBSTITUTED THIENO[2,3-d]PYRIMIDINES AND THEIR USE AS ADENOSINE A2a RECEPTOR ANTAGONISTS” (priority 2008, published 2010):
# Where a name gives a salt, the structure may show the parent alone.
# Legend:
# [1] = target: T1, human adenosine A2a receptor (Homo sapiens, UniProt P29274); assay: Adenosine A2a Receptor Functional Assay (A2AGAL2); format: cell-based; conditions: CHO-K1 cells overexpressing human A2a receptor, cAMP inducible beta-galactosidase reporter, 15 nM NECA agonist challenge
# T1 construct: expressed in transfected cells; host or cells: CHO-K1 cells with cAMP inducible beta-galactosidase reporter gene
# Method: Adenosine A2a Receptor Functional Assay (A2AGAL2)
# To initiate the functional assay, cryopreserved CHO—K1 cells overexpressing the human adenosine A2a receptor and containing a cAMP inducible beta-galactosidase reporter gene were thawed, centrifuged, DMSO containing media removed, and then seeded with fresh culture media into clear 384-well tissue culture treated plates (BD #353961) at a concentration of 10K cells/well. Prior to assay, these plates were cultured for two days at 37° C., 5% CO2, 90% Rh. On the day of the functional assay, culture media was removed and replaced with 45 uL assay medium (Hams/F-12 Modified (Mediatech #10-080CV) supplemented w/0.1% BSA). Test compounds were diluted and 11 point curves created at a 1000× concentration in 100% DMSO. Immediately after addition of assay media to the cell plates, 50 nL of the appropriate test compound antagonist or agonist control curves were added to cell plates using a Cartesian Hummingbird. Compound curves were allowed to incubate at room temperature on cell plates for approximately 15 minutes before addition of a 15 nM NECA (Sigma E2387) agonist challenge (5 uL volume). A control curve of NECA, a DMSO/Media control, and a single dose of Forskolin (Sigma F3917) were also included on each plate. After additions, cell plates were allowed to incubate at 37° C., 5% CO2, 90% Rh for 5.5-6 hours. After incubation, media was removed, and cell plates were washed 1× 50 uL with DPBS w/o Ca & Mg (Mediatech 21-031-CV). Into dry wells, 20 uL of 1× Reporter Lysis Buffer (Promega E3971 (diluted in dH2O from 5× stock)) was added to each well and plates frozen at −20° C. overnight. For β-galactosidase enzyme calorimetric assay, plates were thawed out at room temperature and 20 μL 2× assay buffer (Promega) was added to each well. Color was allowed to develop at 37° C., 5% CO2, 90% Rh for 1-1.5 h or until reasonable signal appeared. The calorimetric reaction was stopped with the addition of 60 μL/well 1M sodium carbonate. Plates were counted at 405 nm on a SpectraMax Microplate Reader (Molecular Devices). Data was analyzed in Microsoft Excel and IC/EC50 curves were fit using a standardized macro.
# [2] = target: T2, human A2a adenosine receptor (Homo sapiens, UniProt P29274); assay: Ligand Binding Assay for Adenosine A2a Receptor (A2A-B); conditions: plasma membrane of HEK293 cells containing human A2a receptor, radioligand [3H]CGS21680
# T2 construct: purchased PerkinElmer RB-HA2a; host or cells: HEK293 cells (plasma membrane preparation)
# Method: Ligand Binding Assay for Adenosine A2a Receptor
# Ligand binding assay of adenosine A2a receptor was performed using plasma membrane of HEK293 cells containing human A2a adenosine receptor (PerkinElmer, RB-HA2a) and radioligand [^3H]CGS21680 (PerkinElmer, NET1021). Assay was set up in 96-well polypropylene plate in total volume of 200 μL by sequentially adding 20 μL1:20 diluted membrane, 130 μL assay buffer (50 mM Tris•HCl, pH7.4 10 mM MgCl2, 1 mM EDTA) containing [^3H] CGS21680, 50 μL diluted compound (4×) or vehicle control in assay buffer. Nonspecific binding was determined by […] NECA. Reaction was carried out at room temperature for 2 hours before filtering through 96-well GF/C filter plate pre-soaked in 50 mM Tris•HCl, pH7.4 containing 0.3% polyethylenimine. Plates were then washed 5 times with cold 50 mM Tris•HCl, pH7.4, dried and sealed at the bottom. Microscintillation fluid 30 μL was added to each well and the top sealed. Plates were counted on Packard Topcount for [^3H]. Data was analyzed in Microsoft Excel and GraphPad Prism programs. (Varani, K.; Gessi, S.; Dalpiaz, A.; Borea, P. A. British Journal of Pharmacology, 1996, 117, 1693)
# [3] = target: T3, human adenosine A1 receptor (Homo sapiens, UniProt P30542); assay: Adenosine A1 Receptor Functional Assay (A1GAL2); format: cell-based; conditions: CHO-K1 cells overexpressing human A1 receptor, cAMP inducible beta-galactosidase reporter, 4 nM r-PIA/1 uM Forskolin agonist challenge
# T3 construct: expressed in transfected cells; host or cells: CHO-K1 cells with cAMP inducible beta-galactosidase reporter gene
# T3 sequence (P30542 1-326): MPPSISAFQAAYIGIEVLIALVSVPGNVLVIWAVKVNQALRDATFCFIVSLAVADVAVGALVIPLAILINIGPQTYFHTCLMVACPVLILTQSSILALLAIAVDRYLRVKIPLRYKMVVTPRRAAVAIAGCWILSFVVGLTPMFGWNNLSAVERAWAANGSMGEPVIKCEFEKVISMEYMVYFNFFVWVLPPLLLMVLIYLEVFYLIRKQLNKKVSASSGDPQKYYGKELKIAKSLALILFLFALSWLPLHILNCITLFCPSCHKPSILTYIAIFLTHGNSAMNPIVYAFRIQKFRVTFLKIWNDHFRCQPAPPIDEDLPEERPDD
# Method: Adenosine A1 Receptor Functional Assay (A1GAL2)
# To initiate the functional assay, cryopreserved CHO—K1 cells overexpressing the human adenosine A1 receptor and containing a cAMP inducible beta-galactosidase reporter gene were thawed, centrifuged, DMSO containing media removed, and then seeded with fresh culture media into clear 384-well tissue culture treated plates (BD #353961) at a concentration of 10K cells/well. Prior to assay, these plates were cultured for two days at 37° C., 5% CO2, 90% Rh. On the day of the functional assay, culture media was removed and replaced with 45 uL assay medium (Hams/F-12 Modified (Mediatech #10-080CV) supplemented w/0.1% BSA). Test compounds were diluted and 11 point curves created at a 1000× concentration in 100% DMSO. Immediately after addition of assay media to the cell plates, 50 nL of the appropriate test compound antagonist or agonist control curves were added to cell plates using a Cartesian Hummingbird. Compound curves were allowed to incubate at room temperature on cell plates for approximately 15 minutes before addition of a 4 nM r-PIA (Sigma P4532)/1 uM Forskolin (Sigma F3917) agonist challenge (5 uL volume). A control curve of r-PIA in 1 uM Forskolin, a DMSO/Media control, and a single dose of Forskolin were also included on each plate. After additions, cell plates were allowed to incubate at 37° C., 5% CO2, 90% Rh for 5.5-6 hours. After incubation, media was removed, and cell plates were washed lx 5OuL with DPBS w/o Ca & Mg (Mediatech 21-031-CV).
# Into dry wells, 20 uL of 1× Reporter Lysis Buffer (Promega E3971 (diluted in dH2O from 5× stock)) was added to each well and plates frozen at −20° C. overnight. For β-galactosidase enzyme calorimetric assay, plates were thawed out at room temperature and 20 μL 2× assay buffer (Promega) was added to each well. Color was allowed to develop at 37° C., 5% CO2, 90% Rh for 1-1.5 h or until reasonable signal appeared. The calorimetric reaction was stopped with the addition of 60 μL/well 1M sodium carbonate. Plates were counted at 405 nm on a SpectraMax Microplate Reader (Molecular Devices). Data was analyzed in Microsoft Excel and IC/EC50 curves were fit using a standardized macro.
# T1 sequence (P29274 whole entry): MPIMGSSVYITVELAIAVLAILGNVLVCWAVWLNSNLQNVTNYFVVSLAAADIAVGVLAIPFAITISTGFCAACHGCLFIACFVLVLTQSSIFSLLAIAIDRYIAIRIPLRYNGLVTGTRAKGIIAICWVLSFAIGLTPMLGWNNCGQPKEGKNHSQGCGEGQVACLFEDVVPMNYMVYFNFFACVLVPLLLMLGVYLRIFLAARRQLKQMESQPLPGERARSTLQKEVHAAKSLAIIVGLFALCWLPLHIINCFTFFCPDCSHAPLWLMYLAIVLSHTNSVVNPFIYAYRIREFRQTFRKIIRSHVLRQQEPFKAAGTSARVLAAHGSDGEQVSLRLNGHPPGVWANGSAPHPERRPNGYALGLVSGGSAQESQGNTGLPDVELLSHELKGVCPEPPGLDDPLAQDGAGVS
# T2 sequence (P29274 whole entry): as above
Structure (SMILES),Ki [1] [µM],Ki [2] [µM],Ki [3] [µM]
"N#Cc1cccc(-c2nc(N)c3cc(Cc4ccccc4)sc3n2)c1 [Example 1, 3-(4-Amino-6-benzyl-thieno[2,3-d]pyrimidin-2-yl)-benzonitrile]",0.0106,0.0168,0.205
"COc1ccccc1C(=O)c1cc2c(N)nc(-c3cccc(OC(F)(F)F)c3)nc2s1 [Example 18, [4-Amino-2-(3-trifluoromethoxy-phenyl)-thieno[2,3-d]pyrimidin-6-yl]-(2-methoxy-phenyl)-methanone]",0.175,,0.865
"COc1ccccc1Cc1cc2c(N)nc(-c3cccc(F)c3)nc2s1 [Example 19, 2-(3-Fluoro-phenyl)-6-(2-methoxy-benzyl)-thieno[2,3-d]pyrimidin-4-ylamine]",0.0624,0.0393,0.418
"N#Cc1cccc(-c2nc(N)c3cc(C4(c5ccccc5)CC4)sc3n2)c1 [Example 6, 3-[4-Amino-6-(1-phenyl-cyclopropyl)-thieno[2,3-d]pyrimidin-2-yl]-benzonitrile]",0.222,,> 0.61
"Nc1nc(-c2cccc(F)c2)nc2sc(Cc3cc(F)cc(F)c3)cc12 [Example 20, 6-(3,5-Difluoro-benzyl)-2-(3-fluoro-phenyl)-thieno[2,3-d]pyrimidin-4-ylamine]",0.188,,0.564
"COc1ccccc1C(=O)c1cc2c(N)nc(-c3cccc(F)c3)nc2s1 [Example 21, [4-Amino-2-(3-fluoro-phenyl)-thieno[2,3-d]pyrimidin-6-yl]-(2-methoxy-phenyl)-methanone]",0.0801,,0.162
"COc1ccccc1-c1nc(N)c2cc(Cc3ccccc3)sc2n1 [Example 11, 6-Benzyl-2-(2-methoxy-phenyl)-thieno[2,3-d]pyrimidin-4-ylamine]",0.217,,0.374
"N#Cc1cccc(-c2nc(N)c3cc(CCc4ccccc4)sc3n2)c1 [Example 2, 3-(4-Amino-6-phenethyl-thieno[2,3-d]pyrimidin-2-yl)-benzonitrile]",0.802,,4.64
"Nc1nc(-c2cccc(C(F)(F)F)c2)nc2sc(Cc3ccccc3)cc12 [Example 12, 6-Benzyl-2-(3-trifluoromethyl-phenyl)-thieno[2,3-d]pyrimidin-4-ylamine]",1.02,,> 1.04
"C=C(c1ccccc1)c1cc2c(N)nc(-c3cccc(C#N)c3)nc2s1 [Example 5, 3-[4-Amino-6-(1-phenyl-vinyl)-thieno[2,3-d]pyrimidin-2-yl]-benzonitrile]",0.0634,,> 1.04
"N#Cc1cccc(-c2nc(N)c3cc(Cc4ccccc4OC(F)(F)F)sc3n2)c1 [Example 15, 3-[4-Amino-6-(2-trifluoromethoxy-benzyl)-thieno[2,3-d]pyrimidin-2-yl]-benzonitrile]",0.0391,,1.01
"COc1ccccc1C(=O)c1cc2c(N)nc(-c3cccc(C#N)c3)nc2s1 [Example 17, 3-[4-Amino-6-(2-methoxy-benzoyl)-thieno[2,3-d]pyrimidin-2-yl]-benzonitrile]",0.023,,1.04
"Nc1nc(-c2cccc(F)c2)nc2sc(Cc3ccccc3)cc12 [Example 14, 6-Benzyl-2-(3-fluoro-phenyl)-thieno[2,3-d]pyrimidin-4-ylamine]",0.0422,,0.123
"COc1cccc(-c2nc(N)c3cc(Cc4ccccc4)sc3n2)c1 [Example 13, 6-Benzyl-2-(3-methoxy-phenyl)-thieno[2,3-d]pyrimidin-4-ylamine hydrochloride]",0.118,,0.266
"CC(c1ccccc1)c1cc2c(N)nc(-c3cccc(C#N)c3)nc2s1 (racemic) [Example 10, (±)-3-[4-Amino-6-(1-phenyl-ethyl)-thieno[2,3-d]pyrimidin-2-yl]-benzonitrile]",0.34,,1.77
"COc1ccccc1Cc1cc2c(N)nc(-c3cccc(C#N)c3)nc2s1 [Example 9, 3-[4-Amino-6-(2-methoxy-benzyl)-thieno[2,3-d]pyrimidin-2-yl]-benzonitrile]",0.00615,0.0125,0.129
